According to the supplement of paper PMC10307832:

Key:
Test in all cases: relative viability (nuclei count vs DMSO), 5 days (fraction); higher = more cells survive
RO-3306 + Crizotinib = compound: C1=CC2=C(C=CC(=C2)C=C3C(=O)NC(=NCC4=CC=CS4)S3)N=C1 [RO-3306] + C[C@@H](Oc1cc(-c2cnn(C3CCNCC3)c2)cnc1N)c1c(Cl)ccc(F)c1Cl [Crizotinib] (partner 1 µM)
How it was run: (§1)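 Relative viability equals treated-well nuclei counts divided by vehicle-well nuclei counts. Counts came from 4× images of lung cancer cell lines grown in 1536-well plates for 5 days after pin-tool dosing on the day after seeding. Dosing used one drug alone or a fixed anchor-drug dose plus five library-drug doses (not always all listed) in √10 steps, and values are medians of duplicate plates.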

RO-3306 + Foretinib = compound: C1=CC2=C(C=CC(=C2)C=C3C(=O)NC(=NCC4=CC=CS4)S3)N=C1 [RO-3306] + COc1cc2c(Oc3ccc(NC(=O)C4(C(=O)Nc5ccc(F)cc5)CC4)cc3F)ccnc2cc1OCCCN1CCOCC1 [Foretinib] (partner 0.25 µM)
How it was run: as §1

RO-3306 + Trametinib = compound: C1=CC2=C(C=CC(=C2)C=C3C(=O)NC(=NCC4=CC=CS4)S3)N=C1 [RO-3306] + CC(=O)Nc1cccc(-n2c(=O)n(C3CC3)c(=O)c3c(Nc4ccc(I)cc4F)n(C)c(=O)c(C)c32)c1 [Trametinib] (partner 0.02 µM)
How it was run: as §1

RO-3306 + Decitabine = compound: C1=CC2=C(C=CC(=C2)C=C3C(=O)NC(=NCC4=CC=CS4)S3)N=C1 [RO-3306] + Nc1ncn([C@H]2C[C@H](O)[C@@H](CO)O2)c(=O)n1 [Decitabine] (partner 2 µM)
How it was run: as §1

| Cell Line | relative viability (RO-3306 + Crizotinib; first compound 0.01 µM) | relative viability (RO-3306 + Crizotinib; first compound 0.03162 µM) | relative viability (RO-3306 + Crizotinib; first compound 0.1 µM) | relative viability (RO-3306 + Crizotinib; first compound 0.3162 µM) | relative viability (RO-3306 + Crizotinib; first compound 1 µM) | relative viability (RO-3306 + Foretinib; first compound 0.01 µM) | relative viability (RO-3306 + Foretinib; first compound 0.03162 µM) | relative viability (RO-3306 + Foretinib; first compound 0.1 µM) | relative viability (RO-3306 + Foretinib; first compound 0.3162 µM) | relative viability (RO-3306 + Foretinib; first compound 1 µM) | relative viability (RO-3306 + Trametinib; first compound 0.01 µM) | relative viability (RO-3306 + Trametinib; first compound 0.03162 µM) | relative viability (RO-3306 + Trametinib; first compound 0.1 µM) | relative viability (RO-3306 + Trametinib; first compound 0.3162 µM) | relative viability (RO-3306 + Trametinib; first compound 1 µM) | relative viability (RO-3306 + Decitabine; first compound 0.01 µM) | relative viability (RO-3306 + Decitabine; first compound 0.03162 µM) | relative viability (RO-3306 + Decitabine; first compound 0.1 µM) | relative viability (RO-3306 + Decitabine; first compound 0.3162 µM) | relative viability (RO-3306 + Decitabine; first compound 1 µM) |
| --- | --- | --- | --- | --- | --- | --- | --- | --- | --- | --- | --- | --- | --- | --- | --- | --- | --- | --- | --- | --- |
| NCI-H2126 | 1.08 | 1.01 | 1.08 | 1.06 | 1.04 | 1.58 | 0.914 | 1.26 | 1.19 | 1.01 | 0.555 | 0.488 | 0.577 | 0.584 | 0.476 | 0.528 | 0.561 | 0.637 | 0.586 | 0.57 |
| LK-2 | 0.232 | 0.239 | 0.216 | 0.201 | 0.234 | 1.28 | – | 1.5 | 1.17 | 1.37 | 1.01 | 0.659 | 0.692 | 0.872 | 0.872 | 0.279 | 0.215 | 0.282 | 0.301 | 0.286 |
| NCI-H441 | 0.824 | 0.424 | 0.591 | 0.867 | 0.485 | 0.911 | 0.937 | 0.944 | 1.07 | 0.937 | 0.451 | 0.341 | 0.368 | 0.439 | 0.428 | 0.216 | 0.211 | 0.253 | 0.277 | 0.244 |
| SW 1573 | 0.879 | 0.62 | 0.771 | 0.865 | 0.606 | 0.89 | 0.879 | 0.934 | 0.993 | 0.887 | 0.636 | 0.428 | 0.539 | 0.604 | 0.573 | 0.537 | 0.461 | 0.401 | 0.507 | 0.45 |
| NCI-H322M | 0.861 | 0.999 | 1.1 | 0.95 | 0.953 | 1.05 | 0.815 | 0.896 | 0.962 | 1.02 | 0.561 | 0.445 | 0.515 | 0.54 | 0.531 | 0.591 | 0.675 | 0.721 | 0.717 | 0.762 |
| ChaGo-K-1 | 1.2 | 1.03 | 1.14 | 0.858 | 0.818 | 0.849 | 0.783 | 0.868 | 0.816 | 0.702 | 0.954 | 0.829 | 0.859 | 0.856 | 0.559 | 0.514 | 0.508 | 0.521 | 0.476 | 0.363 |
| EKVX | 1.05 | 0.859 | 1.03 | 1.04 | 0.894 | 0.805 | 0.748 | 0.841 | 0.741 | 0.744 | 0.328 | 0.298 | 0.362 | 0.328 | 0.324 | 0.298 | 0.277 | 0.385 | 0.322 | 0.29 |
| NCI-H1355 | 1.21 | 0.947 | 1.1 | 1.12 | 1.14 | 1.04 | – | 1.05 | 1.02 | 0.942 | 0.472 | 0.324 | 0.404 | 0.448 | 0.376 | 0.395 | 0.341 | 0.353 | 0.355 | 0.362 |
